This assay concerns the target T1, N-terminal HiBiT tagged BCL6 (Homo sapiens, UniProt P41182).
T1 construct: expressed in transfected cells; host or cells: HT1080 (ATCC CCL-121), stably transduced with lentivirus pLV-UBC-N-HiBiT-BCL6-PGK-puro
Nature of the assay: HiBiT based degradation assay. Type of assay: cell-based. As to conditions: HT1080 cells expressing N-terminal HiBiT tagged BCL6, 5 hours of incubation; for Ymin (5 hr): BCL6 degradation normalized with DMSO control; for DC50: four-parameter logistic model, read-out: EC50 (5 hr). An outline of the steps:
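Degradation measured by luminescence from the Nano-Glo HiBiT lytic reagent (15 min, room temperature), normalized to DMSO controls and fitted to a four-parameter curve.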
In general terms: With HiBiT, luminescence reflects the tagged protein that the partner subunit can reach.

On to `CNC(=O)COc1cc2cc(Nc3nc(N4CCC(CN5CCN(c6ccc7c(C8CCC(=O)NC8=O)nn(C)c7c6)C[C@H]5CO)CC4)ncc3Cl)cnc2n(C(C)C)c1=O` (stereo partly drawn) [Compound 232a, 2-[[6-[[5-chloro-2-[4-[[(2S)-4-[3-(2,6-dioxo-3-piperidyl)-1-methyl-indazol-6-yl]-2-(hydroxymethyl)piperazin-1-yl]methyl]-1-piperidyl]pyrimidin-4-yl]amino]-1-isopropyl-2-oxo-1,8-naphthyridin-3-yl]oxy]-N-methyl-acetamide], for which the “Ymin (5 hr)” value was “+++ (30% ≤ Ymin < 50%)” and the DC50 is less than 10 nM.
In the same order, the values of `CNC(=O)COc1cc2cc(Nc3nc(N4CCC(CN5CCN(c6ccc7c(C8CCC(=O)NC8=O)nn(C)c7c6)C[C@@H]5CO)CC4)ncc3Cl)cnc2n(C(C)C)c1=O` (stereo partly drawn) [Compound 232b, 2-[[6-[[5-chloro-2-[4-[[(2R)-4-[3-(2,6-dioxo-3-piperidyl)-1-methyl-indazol-6-yl]-2-(hydroxymethyl)piperazin-1-yl]methyl]-1-piperidyl]pyrimidin-4-yl]amino]-1-isopropyl-2-oxo-1,8-naphthyridin-3-yl]oxy]-N-methyl-acetamide] are “+++ (30% ≤ Ymin < 50%)” and less than 10 nM.
In the same order, the values of `CNC(=O)COc1cc2cc(Nc3cc(N4CCN(CC5CCN(c6cccc7c(C8CCC(=O)NC8=O)nn(C)c67)CC5)[C@H](CO)C4)ncc3Cl)cnc2n(C(C)C)c1=O` (stereo partly drawn) [Compound 233a, 2-[[6-[[5-chloro-2-[(3S)-4-[[1-[3-(2,6-dioxo-3-piperidyl)-1-methyl-indazol-7-yl]-4-piperidyl]methyl]-3-(hydroxymethyl)piperazin-1-yl]-4-pyridyl]amino]-1-isopropyl-2-oxo-1,8-naphthyridin-3-yl]oxy]-N-methyl-acetamide] are “++++ (Ymin < 30%)” and 10 to 100 nM.
Taken in the same sequence, the figures for `CNC(=O)COc1cc2cc(Nc3nc(N4CCC(CN5CCCN(c6ccc7c(C8CCC(=O)NC8=O)nn(C)c7c6)CC5)CC4)ncc3Cl)cnc2n(C(C)C)c1=O` (stereo not drawn) [Compound 235, 2-[[6-[[5-chloro-2-[4-[[4-[3-(2,6-dioxo-3-piperidyl)-1-methyl-indazol-6-yl]-1,4-diazepan-1-yl]methyl]-1-piperidyl]pyrimidin-4-yl]amino]-1-isopropyl-2-oxo-1,8-naphthyridin-3-yl]oxy]-N-methyl-acetamide] were “+++ (30% ≤ Ymin < 50%)” and 10 to 100 nM.
As to `CNC(=O)COc1cc2cc(Nc3nc(N4CCC(CN5CCCN(c6cccc7c(C8CCC(=O)NC8=O)nn(C)c67)CC5)CC4)ncc3Cl)cnc2n(C(C)C)c1=O` (stereo not drawn) [Compound 236, 2-[[6-[[5-chloro-2-[4-[[4-[3-(2,6-dioxo-3-piperidyl)-1-methyl-indazol-7-yl]-1,4-diazepan-1-yl]methyl]-1-piperidyl]pyrimidin-4-yl]amino]-1-isopropyl-2-oxo-1,8-naphthyridin-3-yl]oxy]-N-methyl-acetamide], the “Ymin (5 hr)” value was “+++ (30% ≤ Ymin < 50%)” and the DC50 is less than 10 nM.
For `CNC(=O)COc1cc2cc(Nc3nc(N4CCC5(CCC(CN6CCC(c7ccc8c(C9CCC(=O)NC9=O)nn(C)c8c7)CC6)CC5)CC4)ncc3Cl)cnc2n(C(C)C)c1=O` (stereo not drawn) [Compound 237, 2-((6-((5-chloro-2-(9-((4-(3-(2,6-dioxopiperidin-3-yl)-1-methyl-1H-indazol-6-yl)piperidin-1-yl)methyl)-3-azaspiro[5.5]undecan-3-yl)pyrimidin-4-yl)amino)-1-isopropyl-2-oxo-1,2-dihydro-1,8-naphthyridin-3-yl)oxy)-N-methylacetamide], the “Ymin (5 hr)” value was “++++ (Ymin < 30%)” and the DC50 was less than 10 nM.
In the same order, the values of `CNC(=O)COc1cc2cc(Nc3nc(N4CCC5(CCN(CC6CCN(c7cc8c(cc7F)c(C7CCC(=O)NC7=O)nn8C)CC6)CC5)CC4)ncc3Cl)cnc2n(C(C)C)c1=O` (stereo not drawn) [Compound 239, 2-((6-((5-chloro-2-(9-((1-(3-(2,6-dioxopiperidin-3-yl)-5-fluoro-1-methyl-1H-indazol-6-yl)piperidin-4-yl)methyl)-3,9-diazaspiro[5.5]undecan-3-yl)pyrimidin-4-yl)amino)-1-isopropyl-2-oxo-1,2-dihydro-1,8-naphthyridin-3-yl)oxy)-N-methylacetamide] are “++++ (Ymin < 30%)” and 10 to 100 nM.
Consider `CNC(=O)COc1cc2cc(Nc3nc(N4CCC5(CCC(CN6CCC(c7ccc8c(C9CCC(=O)NC9=O)nn(C)c8c7F)CC6)CC5)CC4)ncc3Cl)cnc2n(C(C)C)c1=O` (stereo not drawn) [Compound 240, 2-((6-((5-chloro-2-(9-((4-(3-(2,6-dioxopiperidin-3-yl)-7-fluoro-1-methyl-1H-indazol-6-yl)piperidin-1-yl)methyl)-3-azaspiro[5.5]undecan-3-yl)pyrimidin-4-yl)amino)-1-isopropyl-2-oxo-1,2-dihydro-1,8-naphthyridin-3-yl)oxy)-N-methylacetamide], for which the “Ymin (5 hr)” value is recorded as “++++ (Ymin < 30%)” and the DC50 lay within 10 to 100 nM.
Turning to `CNC(=O)COc1cc2cc(Nc3nc(N4CCN(CC5CCN(c6cccc7c(C8CCC(=O)NC8=O)nn(C)c67)CC5(F)F)CC4)ncc3Cl)cnc2n(C(C)C)c1=O` (stereo not drawn) [Compound 241, 2-((6-((5-chloro-2-(4-((1-(3-(2,6-dioxopiperidin-3-yl)-1-methyl-1H-indazol-7-yl)-3,3-difluoropiperidin-4-yl)methyl)piperazin-1-yl)pyrimidin-4-yl)amino)-1-isopropyl-2-oxo-1,2-dihydro-1,8-naphthyridin-3-yl)oxy)-N-methylacetamide], the “Ymin (5 hr)” value was “++++ (Ymin < 30%)” and the DC50 was in the range of 10 to 100 nM.

The values are drawn from patent US20260241012A1, “1,8-NAPHTHYRIDIN-2-ONE HETEROBIFUNCTIONAL BCL6 DEGRADERS” (Treeline Biosciences, Inc., priority 2022, published 2026).
